From patent US10308643B2, “Heterocyclic compound” (Takeda Pharmaceutical Company Limited, priority 2015, dated 2019)

How the values were obtained:
Assay type in all cases: biochemical
[1] = target: T1, HDAC6 enzyme (Homo sapiens, UniProt Q9UBN7); test: HDAC1/6 Enzyme Inhibitory Assay (HDAC-Glo I/II Assay kit), HDAC6; conditions: 1 μM test compound; wells without enzyme = 100% inhibition; read-out: HDAC6 inhibitory rate (%) (1 μM)
T1 construct: transducing full length HDAC1 and HDAC6 genes into Sf-9 insect cells; GST; purchased SignalChem; host or cells: Sf-9 insect cells
T1 sequence (Q9UBN7 1-1215): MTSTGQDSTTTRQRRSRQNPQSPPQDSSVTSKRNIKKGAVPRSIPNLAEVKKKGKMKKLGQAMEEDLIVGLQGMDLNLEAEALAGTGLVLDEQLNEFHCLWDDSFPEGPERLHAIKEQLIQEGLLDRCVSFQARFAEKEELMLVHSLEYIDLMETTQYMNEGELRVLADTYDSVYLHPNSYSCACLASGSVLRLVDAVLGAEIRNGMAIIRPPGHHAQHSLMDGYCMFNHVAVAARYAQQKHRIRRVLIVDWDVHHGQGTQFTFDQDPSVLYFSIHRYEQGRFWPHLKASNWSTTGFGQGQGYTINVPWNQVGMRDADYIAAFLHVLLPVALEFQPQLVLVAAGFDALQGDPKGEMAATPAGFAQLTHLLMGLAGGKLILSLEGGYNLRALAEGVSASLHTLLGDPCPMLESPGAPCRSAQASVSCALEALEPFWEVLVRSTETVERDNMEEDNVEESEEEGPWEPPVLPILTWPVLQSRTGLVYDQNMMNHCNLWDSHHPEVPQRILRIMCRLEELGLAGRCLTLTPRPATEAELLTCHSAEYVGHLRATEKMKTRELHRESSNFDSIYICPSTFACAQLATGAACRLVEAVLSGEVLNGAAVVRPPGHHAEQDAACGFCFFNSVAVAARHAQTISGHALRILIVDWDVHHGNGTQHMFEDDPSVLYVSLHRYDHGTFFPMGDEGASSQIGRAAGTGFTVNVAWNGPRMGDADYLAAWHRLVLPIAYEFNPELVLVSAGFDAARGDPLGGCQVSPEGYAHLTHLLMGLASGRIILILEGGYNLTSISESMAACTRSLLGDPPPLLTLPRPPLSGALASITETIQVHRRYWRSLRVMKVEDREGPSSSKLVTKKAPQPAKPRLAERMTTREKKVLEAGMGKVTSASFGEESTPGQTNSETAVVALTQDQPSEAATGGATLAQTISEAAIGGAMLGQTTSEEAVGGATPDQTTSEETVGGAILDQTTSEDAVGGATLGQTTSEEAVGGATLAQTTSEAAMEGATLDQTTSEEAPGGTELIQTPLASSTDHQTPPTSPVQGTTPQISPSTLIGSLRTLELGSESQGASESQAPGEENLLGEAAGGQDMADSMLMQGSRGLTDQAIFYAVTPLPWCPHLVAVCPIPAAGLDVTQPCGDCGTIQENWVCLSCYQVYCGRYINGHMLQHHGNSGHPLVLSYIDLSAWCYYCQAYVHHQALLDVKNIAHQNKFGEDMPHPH
Experimental: (§1) HDAC1/6 Enzyme Inhibitory Assay
(§2) HDAC1 enzyme and HDAC6 enzyme each prepared by transducing full length HDAC1 and HDAC6 genes into Sf-9 insect cells and purifying by GST affinity column were purchased from SignalChem. Using these enzymes, HDAC1 and/or HDAC6 enzyme inhibitory activities of the compound of the present invention were evaluated. Enzymes were used after preserved at −70° C. HDAC1 or HDAC6 enzyme inhibitory activity of the compound of the present invention was measured using HDAC-Glo™ I/II Assay kit (Promega) according to the following experimental method. The test compound diluted with assay buffer (24 mM Tris-HCl (pH 7.5), 1 mM MgCl2, 0.35 mM KCl, 135 mM NaCl, 0.6 mM Glutathione, 0.01% Tween-20) was added to a 384-well plate by each 2 μL. Then, HDAC1 or HDAC6 enzyme solution diluted with assay buffer was added thereto by each 4 μL, and the plate was incubated at room temperature for 60 min. After incubated, HDAC substrate-Developer solution prepared according to Promega protocol attached to the assay kit was added to the 384-well plate by each 2 μL, and the enzyme reaction was started. After reacting at room temperature for 20 min, luminescence level was measured using plate reader Envision (PerkinElmer). The inhibitory activity of each compound was calculated as a relative activity value when luminescence level in wells without enzyme is considered as 100% inhibition.

[2] = target: T2, HDAC1 enzyme (Homo sapiens, UniProt Q13547); test: HDAC1/6 Enzyme Inhibitory Assay (HDAC-Glo I/II Assay kit), HDAC1; conditions: 1 μM test compound; wells without enzyme = 100% inhibition; read-out: HDAC1 inhibitory rate (%) (1 μM)
T2 construct: transducing full length HDAC1 and HDAC6 genes into Sf-9 insect cells; GST; purchased SignalChem; host or cells: Sf-9 insect cells
T2 sequence (Q13547 whole entry): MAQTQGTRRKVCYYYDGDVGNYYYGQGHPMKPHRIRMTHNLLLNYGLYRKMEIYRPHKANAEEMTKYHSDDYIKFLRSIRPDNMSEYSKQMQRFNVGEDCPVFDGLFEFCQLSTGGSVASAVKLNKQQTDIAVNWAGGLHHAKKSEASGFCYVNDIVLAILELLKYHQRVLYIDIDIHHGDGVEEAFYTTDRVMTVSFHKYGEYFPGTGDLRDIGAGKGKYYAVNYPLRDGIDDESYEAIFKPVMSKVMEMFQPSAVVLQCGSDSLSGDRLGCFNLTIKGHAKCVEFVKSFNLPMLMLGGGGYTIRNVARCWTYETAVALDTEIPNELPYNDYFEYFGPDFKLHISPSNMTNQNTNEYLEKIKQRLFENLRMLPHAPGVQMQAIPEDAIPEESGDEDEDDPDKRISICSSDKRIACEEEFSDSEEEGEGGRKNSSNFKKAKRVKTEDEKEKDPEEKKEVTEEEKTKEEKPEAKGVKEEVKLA
Experimental: as §1, §2

[3] = target: T3, HDAC9 enzyme (Homo sapiens, UniProt Q9UKV0); test: HDAC9 Enzyme Inhibitory Assay (HDAC-Glo class IIa); conditions: 1 μM test compound; wells without enzyme = 100% inhibition; read-out: HDAC9 inhibitory rate (%) (1 μM)
T3 construct: transducing full length HDAC9 gene into Sf-9 insect cells; made in house; host or cells: Sf-9 insect cells
T3 sequence (Q9UKV0 whole entry, species assumed): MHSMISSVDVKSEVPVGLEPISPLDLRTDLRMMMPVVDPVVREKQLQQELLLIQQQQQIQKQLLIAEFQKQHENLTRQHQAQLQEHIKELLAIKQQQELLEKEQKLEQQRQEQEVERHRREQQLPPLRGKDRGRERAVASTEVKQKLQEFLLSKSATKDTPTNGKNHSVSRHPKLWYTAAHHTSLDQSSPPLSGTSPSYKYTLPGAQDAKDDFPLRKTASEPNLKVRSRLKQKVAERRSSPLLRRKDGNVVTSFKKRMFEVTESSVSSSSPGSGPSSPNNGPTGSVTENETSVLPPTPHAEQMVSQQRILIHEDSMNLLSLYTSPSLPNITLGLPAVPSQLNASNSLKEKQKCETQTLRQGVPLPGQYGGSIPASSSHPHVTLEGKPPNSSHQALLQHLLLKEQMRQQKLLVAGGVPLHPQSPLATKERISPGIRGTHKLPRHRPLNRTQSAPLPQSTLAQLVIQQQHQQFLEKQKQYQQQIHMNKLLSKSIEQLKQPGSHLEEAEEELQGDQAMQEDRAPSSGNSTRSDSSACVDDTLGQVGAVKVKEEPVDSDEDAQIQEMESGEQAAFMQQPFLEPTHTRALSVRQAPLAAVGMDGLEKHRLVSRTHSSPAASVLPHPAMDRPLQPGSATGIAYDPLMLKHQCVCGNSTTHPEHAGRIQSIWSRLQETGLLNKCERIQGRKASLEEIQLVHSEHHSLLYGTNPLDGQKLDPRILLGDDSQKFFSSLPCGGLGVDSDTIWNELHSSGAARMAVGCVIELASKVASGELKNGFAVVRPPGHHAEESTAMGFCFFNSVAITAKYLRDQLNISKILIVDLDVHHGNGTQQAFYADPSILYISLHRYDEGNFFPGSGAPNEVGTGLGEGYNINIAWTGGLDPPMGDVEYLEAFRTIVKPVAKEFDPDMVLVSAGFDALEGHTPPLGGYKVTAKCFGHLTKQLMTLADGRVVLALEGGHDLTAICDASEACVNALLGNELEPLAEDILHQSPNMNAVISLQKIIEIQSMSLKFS
Experimental: HDAC9 Enzyme Inhibitory Assay
Enzyme was prepared by transducing full length HDAC9 gene into Sf-9 insect cells and purifying by Ni-NTA affinity column, and HDAC9 enzyme inhibitory activity was evaluated. Enzymes were used after preserved at −70° C. HDAC9 enzyme inhibitory activity of the test compound was measured using HDAC-Glo class IIa (Promega) according to the following experimental method. The test compound diluted with assay buffer (24 mM Tris-HCl (pH 7.5), 1 mM MgCl2, 0.35 mM KCl, 135 mM NaCl, 0.6 mM Glutathione, 0.01% Tween-20) was added to a 384-well plate by each 2 μL. Then, HDAC9 enzyme solution diluted with assay buffer was added thereto by each 2 μL, and the plate was incubated at room temperature for 60 min. After incubated, HDAC substrate-Developer solution prepared according to Promega protocol was added to the 384-well plate by each 4 μL, and the enzyme reaction was started. After reacting at room temperature for 20 min, luminescence level was measured using plate reader Envision (PerkinElmer). The inhibitory activity of each compound was calculated as a relative activity value when luminescence level in wells without enzyme is considered as 100% inhibition.

Row | SMILES | inhibition at 1 µM [1] [%] | inhibition at 1 µM [2] [%] | inhibition at 1 µM [3] [%]
1 | O=C1c2cc(-c3noc(C(F)(F)F)n3)ccc2CN1[C@@H]1CC[C@@H]1Cc1ccccc1 (relative stereo) [Example 60, 2-(cis-2-benzylcyclobutyl)-6-(5-(trifluoromethyl)-1,2,4-oxadiazol-3-yl)isoindolin-1-one] | 92 | 37 | 77
2 | O=C1c2cc(-c3noc(C(F)(F)F)n3)ccc2CN1[C@H]1C[C@@H]1c1ccccc1 (relative stereo) [Example 66, 2-(trans-2-phenylcyclopropyl)-6-(5-(trifluoromethyl)-1,2,4-oxadiazol-3-yl)isoindolin-1-one] | 90 | 17 | 54
3 | CC(C)(C)OC(=O)N1CC[C@@H](c2ccccc2)[C@H](N2Cc3cc(-c4noc(C(F)(F)F)n4)ccc3C2=O)C1 (relative stereo) [Example 71, tert-butyl trans-3-(1-oxo-5-(5-(trifluoromethyl)-1,2,4-oxadiazol-3-yl)-1,3-dihydro-2H-isoindol-2-yl)-4-phenylpiperidine-1-carboxylate] | 36 | 9 | 73
4 | O=C1c2ccc(-c3noc(C(F)(F)F)n3)cc2CN1[C@@H]1CNCC[C@H]1c1ccccc1 (relative stereo) [Example 72, trans-2-(4-phenylpiperidin-3-yl)-5-(5-(trifluoromethyl)-1,2,4-oxadiazol-3-yl)isoindolin-1-one] | 90 | 32 | 80
5 | CC(=O)N1CC[C@@H](c2ccccc2)[C@H](N2Cc3cc(-c4noc(C(F)(F)F)n4)ccc3C2=O)C1 (relative stereo) [Example 73, trans-2-(1-acetyl-4-phenylpiperidin-3-yl)-5-(5-(trifluoromethyl)-1,2,4-oxadiazol-3-yl)isoindolin-1-one] | 77 | 19 | 81
6 | CC(C)(C)OC(=O)N1CC[C@H](N2Cc3cc(-c4noc(C(F)(F)F)n4)ccc3C2=O)[C@H](c2ccccc2)C1 (relative stereo) [Example 78, tert-butyl cis-4-(1-oxo-5-(5-(trifluoromethyl)-1,2,4-oxadiazol-3-yl)-1,3-dihydro-2H-isoindol-2-yl)-3-phenylpiperidine-1-carboxylate] | 11 | -3 | 76
7 | O=C1c2ccc(-c3noc(C(F)(F)F)n3)cc2CN1[C@H]1CCNC[C@H]1c1ccccc1 (relative stereo) [Example 79, cis-2-(3-phenylpiperidin-4-yl)-5-(5-(trifluoromethyl)-1,2,4-oxadiazol-3-yl)isoindolin-1-one] | 78 | 17 | 88
8 | CC(=O)N1CC[C@H](N2Cc3cc(-c4noc(C(F)(F)F)n4)ccc3C2=O)[C@H](c2ccccc2)C1 (relative stereo) [Example 80, cis-2-(1-acetyl-3-phenylpiperidin-4-yl)-5-(5-(trifluoromethyl)-1,2,4-oxadiazol-3-yl)isoindolin-1-one] | 76 | 13 | 97
9 | CC(C)(C)OC(=O)N1CC[C@@H](N2Cc3cc(-c4noc(C(F)(F)F)n4)ccc3C2=O)[C@H](c2ccccc2)C1 (relative stereo) [Example 135, tert-butyl-trans-4-(1-oxo-5-(5-(trifluoromethyl)-1,2,4-oxadiazol-3-yl)-1,3-dihydro-2H-isoindol-2-yl)-3-phenylpiperidine-1-carboxylate] | 40 | -5 | 58
10 | O=C1c2ccc(-c3noc(C(F)(F)F)n3)cc2CN1[C@@H]1CCNC[C@H]1c1ccccc1 (relative stereo) [Example 136, trans-2-(3-phenylpiperidin-4-yl)-5-(5-(trifluoromethyl)-1,2,4-oxadiazol-3-yl)isoindolin-1-one] | 94 | 39 | 82
11 | CC(=O)N1CC[C@@H](N2Cc3cc(-c4noc(C(F)(F)F)n4)ccc3C2=O)[C@H](c2ccccc2)C1 (relative stereo) [Example 137, trans-2-(1-acetyl-3-phenylpiperidin-4-yl)-5-(5-(trifluoromethyl)-1,2,4-oxadiazol-3-yl)isoindolin-1-one] | 89 | 25 | 94
12 | CC(C)(C)OC(=O)N[C@@H]1CCCC[C@@H]1N1Cc2ccc(-c3noc(C(F)(F)F)n3)cc2C1=O (relative stereo) [Example 198, tert-butyl (cis-2-(1-oxo-6-(5-(trifluoromethyl)-1,2,4-oxadiazol-3-yl)-1,3-dihydro-2H-isoindol-2-yl)cyclohexyl)carbamate] | 95 | 26 | 66
13 | N[C@H]1CCCC[C@H]1N1Cc2ccc(-c3noc(C(F)(F)F)n3)cc2C1=O (relative stereo) [Example 199, 2-(cis-2-aminocyclohexyl)-6-(5-(trifluoromethyl)-1,2,4-oxadiazol-3-yl)isoindolin-1-one] | 68 | 5 | 75
14 | CC1(C(=O)N[C@@H]2CCCC[C@@H]2N2Cc3ccc(-c4noc(C(F)(F)F)n4)cc3C2=O)COC1 (relative stereo) [Example 200, 3-methyl-N-(cis-2-(1-oxo-6-(5-(trifluoromethyl)-1,2,4-oxadiazol-3-yl)-1,3-dihydro-2H-isoindol-2-yl)cyclohexyl)oxetane-3-carboxamide] | 96 | 35 | 85
15 | CC(CO)(CCl)C(=O)N[C@@H]1CCCC[C@H]1N1Cc2ccc(-c3noc(C(F)(F)F)n3)cc2C1=O (relative stereo) [Example 203, 3-chloro-2-(hydroxymethyl)-2-methyl-N-(trans-2-(1-oxo-6-(5-(trifluoromethyl)-1,2,4-oxadiazol-3-yl)-1,3-dihydro-2H-isoindol-2-yl)cyclohexyl)propanamide] | 100 | 8 | 69
